Data published in ChEMBL document CHEMBL1152412, “Isolation, biomimetic synthesis, and cytotoxic activity of bis(pseudopterane) amines” (J Nat Prod, 2009).

Experiments:
[1] = test system: HCT-116; assay: Cytotoxicity against human HCT116 cells after 72 hrs; type: functional, cell-based; details: HCT-116, 72 h
[2] = test system: HeLa; assay: Cytotoxicity against human HeLa cells after 72 hrs; type: functional, cell-based

| SMILES | IC50 [1] | IC50 [2] |
| --- | --- | --- |
| C=C(C)[C@H]1C2=CC(C(=O)OC)=C(C[C@H](C(=C)C)[C@@H](O)[C@@H](N[C@H]3C4=C[C@@H](OC4=O)[C@@H](C(=C)C)C4=CC(C(=O)OC)=C(C[C@H](C(=C)C)[C@H]3O)O4)C3=C[C@H]1OC3=O)O2 [BIS(GORGIACEROL)AMINE] | 28 µM | > 100 µM |
| C=C(C)[C@H]1C2=CC(C(=O)OC)=C(C[C@H](C(=C)C)[C@H](O)/C=C3\C(=O)O[C@@H]1[C@@H]3N[C@H]1C3=C[C@@H](OC3=O)[C@@H](C(=C)C)C3=CC(C(=O)OC)=C(C[C@H](C(=C)C)[C@H]1O)O3)O2 [BIS(PSEUDOPTERANE)AMINE] | 4 µM | 42 µM |
